Laboratory results reported in patent US12378261B2, “One-step, fast, 18F-19F isotopic exchange radiolabeling of difluoro-dioxaborinins and use of such compounds in treatment” (CORNELL UNIVERSITY, priority 2018, dated 2025).

Assays:
[1] = test system: sentinel (popliteal) lymph node; test: Sentinel lymph node fluorescence imaging (IVIS) and histology in mouse; assay type: in vivo
Procedure: FIGS. 3A-F: Sentinel lymph node imaging using [^18F]-6F-Cur-BF2 according to the working examples. […] Distal lymph nodes (lumbar, iliac lymph nodes^30) are not observed. […] A 200 μCi dose of [^18F]-6F-Cur-BF2 and Magnevist (MRI contrast agent) were injected into the right rear paw of […]. The injection site (bottom arrow) and sentinel lymph node (popliteal, upper arrows) are visible at 5 min. FIGS. 3D-3F show popliteal (sentinel) lymph node imaging 2 hours post injection into the back paw with a Pre-Clinical IVIS. Optical/Computed Tomography In Vivo Imaging System (Excitation filter centered at 430 nm and emission filter centered at 520 nm. Exposure time=1 s). […] White arrows in FIGS. 3D-3F indicate the lymph nodes.
FIG. 5 provides the histology of the collected lymph node from the mouse in FIG. 4A. The mouse lymph node was collected at 2 hours post injection into the right, rear footpad. The collected lymph node was frozen with OCT Gel and cut with a thickness of […]. The slice was, imaged with fluorescence microscope at the channel of 6F-Cur-BF2.
Applicant attempted sentinel lymph node imaging with [^18F]-6FCur-BF2 by fluorescence with 430 nm excitation and 520 nm emission filters. […] The collected lymph node is confirmed in histology.

[2] = 19F NMR solvolytic stability of difluoro-dioxaborinins in water/DMSO; assay type: physicochemical; details: for Fold increase in stability (90% → 10% H2O): 10% water/DMSO vs 90% water/DMSO; for times more resistant to solvolysis than DK-1: 50 M H2O
Procedure: Radioactive TLC and […]/^19F NMR studies were used to determine the solvolytic stability of difluoro-dioxaborinins.
(§1) Some difluoro-dioxaborinins are insoluble in water; therefore, solvolytic studies on these compounds were determined in 10% H2O/90% DMSO (5.55 M H2O, deionized). To relate the effect of water concentration to solvolysis, solvolytic studies on all water-soluble difluoro-dioxaborinins (DK-1, DK-2, DK-3, DK-6 and DK-15) were performed twice: once in 10% H2O/90% DMSO (5.55 M H2O) (FIG. 2A), and again in 90% H2O/10% DMSO (50 M H2O) (FIG. 2B). Studies performed in 50 M H2O reflect physiologically appropriate conditions, and allow comparison to literature aryl/alkyl trifluoroborate and dipyrromethene solvolytic stability measurements.^11, 14 Characterization in solutions with reduced water content, 5.55 M H2O, allows comparison of solvolytic rate constants to those of less-soluble difluoro-dioxaborinins. Difluorodioxaborinins solvolysis is not observed in pure (100%) DMSO.
The coefficient of determination (R^2) in all ^19F NMR solvolysis data closely follows single, 2 parameter exponential decay regression (f=a*exp(−k*x), R2 >0.99 in 88% of experiments).

[3] = Optical properties (absorbance, fluorescence emission, quantum yield); assay type: physicochemical; details: for Quantum yield: Methanol
HCT116 = test: Inhibition of cell proliferation (IC50, MTS); assay type: cell-based
Procedure: (§2) As shown in FIGS. 11A-11E, cell viability as a function of Curcumin-BF2 concentration was evaluated for each of the cell lines in Example 5, showing the compounds of the present technology are effective in inhibiting cancer cell proliferation.

HeLa = test: Inhibition of cell proliferation (IC50, MTS); assay type: cell-based
Procedure: as §2

A549 = test: Inhibition of cell proliferation (IC50, MTS); assay type: cell-based
Procedure: as §2

MCF-7 = test: Inhibition of cell proliferation (IC50, MTS); assay type: cell-based
Procedure: as §2

MDA-MB-231 = test: Inhibition of cell proliferation (IC50, MTS); assay type: cell-based
Procedure: as §2

[4] = Solubility in water (50 M H2O); assay type: physicochemical; details: 50 M H2O (90% H2O/10% DMSO)
Procedure: as §1
Solvolysis is promoted by extending difluorodioxaborinin π-conjugation using moderately electron poor or electron-neutral substituents (DK-13 and DK-14). To evaluate the effect of extending the difluoro-dioxaborinin 4,5,6 π-system on solvolysis, compounds that bear extended π-conjugation through the difluoro-dioxaborinin moiety (positions 4, 5, and 6) were synthesized. ^19F NMR solvolytic measurements were performed only in 5.55 M H2O, as DK-13 and DK-14 are insoluble in 50 M H2O.

sentinel nodes = details: non-targeted fluorescent contrasts, literature; cited from earlier work

In the case of `COc1cc(/C=C/C2=CC(/C=C/c3ccc(OC(=O)c4c(F)cc(F)cc4F)c(OC)c3)=[O+][B-](F)(F)O2)ccc1OC(=O)c1c(F)cc(F)cc1F` [6F-Cur-BF2], the “fluorescence in collected lymph node (histology)” value ([1]; mouse lymph node collected 2 hours post injection) is reported as “observed in the lymph node”, the “sentinel node visualization by fluorescence through the skin” value ([1]; mouse, 430 nm excitation, 520 nm emission filters, 2 hours post injection) is reported as “the sentinel node is difficult to visualize through the skin” and the “fold more rapid solvolysis than Cur-BF2” value ([2]; 5.55 M H2O) is reported as 33. The “fold slower solvolysis (more stable) than DK-1” value ([2]; 5.55 M H2O) was 1.6, the Abs [3] was 430 nm and the Em [3] was 512 nm. For the same molecule, the “Extinction Coefficient” value [3] was 50,800 cm^−1M^−1, the “Stokes Shift” value [3] was 82 nm and the Quantum yield [3] was 3.0%.

With `COc1cc(/C=C/C2=CC(/C=C/c3ccc(OC(=O)CCN4C(=O)C=CC4=O)c(OC)c3)=[O+][B-](F)(F)O2)ccc1OC(=O)CCN1C(=O)C=CC1=O` [Cur-BF2-2Mal] the “fold more rapid solvolysis than Cur-BF2” value ([2]; 5.55 M H2O) was 24, the “fold slower solvolysis (more stable) than DK-1” value ([2]; 5.55 M H2O) was 2.1 and the Abs [3] was 434 nm. The Em [3] was 509 nm, the “Extinction Coefficient” value [3] was 54,000 cm^−1M^−1 and the “Stokes Shift” value [3] was 75 nm. For the same molecule, the Quantum yield [3] was 3.1%.

`COc1cc(/C=C/C2=CC(/C=C/c3ccc(O)c(OC)c3)=[O+][B-](F)(F)O2)ccc1O` [Cur-BF2] showed an IC50 (HCT116; HCT116, 24 h) of 3.31 ± 0.04 µM, an IC50 (HCT116; HCT116, 48 h) of 4.3 ± 0.2 µM and an IC50 (HeLa; 24 h) of 5.4 ± 0.4 µM. For the same molecule, the IC50 (HeLa; 48 h) was 4.2 ± 0.2 µM, the IC50 (A549; A549, 24 h) was 27 ± 3 µM and the IC50 (A549; A549, 48 h) was 5.5 ± 0.3 µM. It also gave an IC50 (MCF-7; MCF-7, 24 h) of 10 ± 4 µM, an IC50 (MCF-7; MCF-7, 48 h) of 4.8 ± 0.2 µM and an IC50 (MDA-MB-231; MDA-MB-231, 24 h) of 11 ± 1 µM. For the same molecule, the IC50 (MDA-MB-231; MDA-MB-231, 48 h) was 6 ± 1 µM, the Abs [3] was 500 nm and the Em [3] was 571 nm. The “Extinction Coefficient” value [3] was 73,000 cm^−1M^−1 and the solubility in water [4] was “insoluble”.

`COc1cc(/C=C/C(=O)CC(=O)/C=C/c2ccc(O)c(OC)c2)ccc1O` [Curcumin, reference compound] gave an IC50 (HCT116; Homo sapiens, HCT-116, HCT116, 24 h) of 27 ± 5 µM, an IC50 (HCT116; Homo sapiens, HCT-116, HCT116, 48 h) of 16 ± 2 µM and an IC50 (HeLa; Homo sapiens, 24 h) of 16 ± 3 µM. It also gave an IC50 (HeLa; Homo sapiens, 48 h) of 19 ± 6 µM, an IC50 (A549; Homo sapiens, A549, 24 h) of 50 ± 4 µM and an IC50 (A549; Homo sapiens, A549, 48 h) of 25 ± 1 µM. It also gave an IC50 (MCF-7; Homo sapiens, MCF7, MCF-7, 24 h) of 27 ± 8 µM, an IC50 (MCF-7; Homo sapiens, MCF7, MCF-7, 48 h) of 35 ± 3 µM and an IC50 (MDA-MB-231; Homo sapiens, MDA-MB-231, 24 h) of 32 ± 13 µM. The IC50 (MDA-MB-231; Homo sapiens, MDA-MB-231, 48 h) was 26 ± 6 µM, the Abs [3] was 434 nm and the Em [3] was 535 nm. For the same molecule, the “Extinction Coefficient” value [3] was 56,500 cm^−1M^−1, the “Stokes Shift” value [3] was 101 nm and the Quantum yield [3] was 2.4%.

With `CC1=CC(C)=[O+][B-](F)(F)O1` [DK-1] the “Fold increase in stability (90% → 10% H2O)” value [2] was about 2.8, the “solvolysis rate constant, k” value ([2]; 50 M H2O (90% water, 10% DMSO)) was 0.254 ± 0.002 h⁻¹ and the “solvolysis in absence of water” value ([2]; 100% DMSO) was “not observed”. It also gave a fraction decomposed ([2]; […] (one fluoride-18 half-life), from rate constant at 50 M H2O) of 37%, an Abs [3] of 279 nm and an Em [3] of 305 nm. For the same molecule, the “Extinction Coefficient” value [3] was 9,180 cm^−1M^−1, the “Stokes Shift” value [3] was 26 nm and the solubility in water [4] was “water-soluble”.

For `CC1=[O+][B-](F)(F)OC(C)=C1C` [DK-2], the “Fold increase in stability (90% → 10% H2O)” value [2] was 3.2, the “times more resistant to solvolysis than DK-1” value (“times more resistant” for short) [2] was 6.2 and the Abs [3] was 303 nm. For the same molecule, the Em [3] was 307 nm, the “Extinction Coefficient” value [3] was 12,200 cm^−1M^−1 and the “Stokes Shift” value [3] was 4 nm. The solubility in water [4] was “water-soluble”.

In the case of `CCC1=C(C)O[B-](F)(F)[O+]=C1C` [DK-3], the “Fold increase in stability (90% → 10% H2O)” value [2] is reported as 3.5, the “times more resistant” value [2] is reported as 5.6 and the Abs [3] is reported as 303 nm. The Em [3] was 306 nm, the “Extinction Coefficient” value [3] was 12,000 cm^−1M^−1 and the “Stokes Shift” value [3] was 3 nm. For the same molecule, the solubility in water [4] was “water-soluble”.

In the case of `CCOC(=O)CCC1=C(C)O[B-](F)(F)[O+]=C1C` [DK-6], the “Fold increase in stability (90% → 10% H2O)” value [2] is reported as 4.7, the “times more resistant” value [2] is reported as 1.9 and the Abs [3] is reported as 301 nm. The Em [3] was 307 nm, the “Extinction Coefficient” value [3] was 12,600 cm^−1M^−1 and the “Stokes Shift” value [3] was 6 nm. The solubility in water [4] was “water-soluble”.

For `F[B-]1(F)OC(c2ccccc2)=CC(c2ccccc2)=[O+]1` [DK-13], the “fold slower solvolysis (more stable) than DK-1” value ([2]; 5.55 M H2O) was 1.4, the “times more rapid solvolysis than DK-2” value ([2]; 5.55 M H2O) was 5.0 and the Abs [3] was 363 nm. The Em [3] was 413 nm, the “Extinction Coefficient” value [3] was 38,000 cm^−1M^−1 and the “Stokes Shift” value [3] was 50 nm. The Quantum yield [3] was 11.2% and the solubility in water [4] was “insoluble”.

For `CC1=CC(c2ccccc2)=[O+][B-](F)(F)O1` [DK-14], the “fold more rapid solvolysis than DK-1” value ([2]; 5.55 M H2O) was 1.7, the Abs [3] was 325 nm and the Em [3] was 328 nm. For the same molecule, the “Extinction Coefficient” value [3] was 19,800 cm^−1M^−1, the “Stokes Shift” value [3] was 3 nm and the solubility in water [4] was “insoluble”.

For `CC1=C2CCCCC2=[O+][B-](F)(F)O1` [DK-15], the “Fold increase in stability (90% → 10% H2O)” value [2] was 5.0, the “times more resistant” value [2] was 2.5 and the Abs [3] was 303 nm. For the same molecule, the Em [3] was 307 nm, the “Extinction Coefficient” value [3] was 12,000 cm^−1M^−1 and the “Stokes Shift” value [3] was 4 nm. The solubility in water [4] was “water-soluble”.

In the case of `COc1ccc(C2=CC(c3ccc(C(C)(C)C)cc3)=[O+][B-](F)(F)O2)cc1` [DK-16], the “fold slower solvolysis (more stable) than DK-1” value ([2]; 5.55 M H2O) is reported as 15, the “fold slower solvolysis than DK-2” value ([2]; 5.55 M H2O) is reported as 2.2 and the Abs [3] is reported as 400 nm. The Em [3] was 439 nm, the “Extinction Coefficient” value [3] was 62,000 cm^−1M^−1 and the “Stokes Shift” value [3] was 39 nm. The Quantum yield [3] was 67.3% and the solubility in water [4] was “insoluble”.

With `COc1ccc(C2=CC(c3ccc(OC)cc3)=[O+][B-](F)(F)O2)cc1` [DK-17] the “fold slower solvolysis (more stable) than DK-1” value ([2]; 5.55 M H2O) was 16, the “fold slower solvolysis than DK-2” value ([2]; 5.55 M H2O) was 2.3 and the Abs [3] was 408 nm. The Em [3] was 438 nm, the “Extinction Coefficient” value [3] was 63,600 cm^−1M^−1 and the “Stokes Shift” value [3] was 30 nm. For the same molecule, the Quantum yield [3] was 65.8% and the solubility in water [4] was “insoluble”.

In the case of `CC1(C)C(/C=C/C=C/C=C/C=C2\N(CCCCS(=O)(=O)O)c3ccc4ccccc4c3C2(C)C)=[N+](CCCCS(=O)(=O)[O-])c2ccc3ccccc3c21` [indocyanine green], the “behaviour in sentinel node mapping” value (sentinel nodes) is given as “travel through sentinel nodes to delineate multiple non-sentinel nodes”.

For `CCN(CC)c1ccc(C(=C2C=CC(=[N+](CC)CC)C=C2)c2cc(S(=O)(=O)[O-])ccc2S(=O)(=O)[O-])cc1.[Na+]` [lymphazurin, isosulfan blue], the “behaviour in sentinel node mapping” value (sentinel nodes) is given as “travel through sentinel nodes to delineate multiple non-sentinel nodes”.
